Laboratory results published in patent publication US5977169A, “Substituted tetronic acids useful for treating HIV and other retroviruses” (priority 1997, dated 1999).

Target: T1, HIV-1 protease (Human immunodeficiency virus type 1 group M subtype B, UniProt P04585)
T1 construct: The protease (or proteinase) enzyme, consisting of only 99 amino acids
Assay: In vitro HIV protease inhibitory assay (fluorescently labeled substrate, avidin-polystyrene particles)
Assay type: biochemical
Conditions: for inhibition at 3.3 µM: HIV-1 dose 3.3 μM; for inhibition at 10 µM: HIV-1 dose 10.0 μM; for inhibition at 30 µM: HIV-1 dose 30.0 μM
Experimental: The HIV protease screening assay is based on a fluorescently labeled substrate which can be resolved from nonlabeled cleavage product using avidin-polystyrene particles, 0.7-0.9 μm. The substrate is biotinylated at the amino terminal arginine and fluorescently labeled with fluorescein isothiocynate (FITC) at the carboxyl terminal lysine. This assay has been employed to detect novel, nonpeptidic inhibitors of HIV-1 protease. Substrate (20 μl of 0.2 μM), sample (10 μl of desired concentraion), and enzyme (10 μl of 0.1 μM) are added to a 96 well pandex plate. The assay is run in 0.1 M sodium acetate buffer at pH 5.5 in the presence of 1.0 M sodium chloride and 0.05% NP-40 and incubated in the dark for one hour at room temperature. Avidin coated polystyrene beads (40 μl of 0.1% (w/v)) are added and the incubation is continued in the dark for an additional half hour. The labeled cleavage product is separated from the unreacted substrate via filtration and is read on the IDEXX Screen Machine. (IDEXX Corporation--Portland, Me.) The data are analyzed by appropriate computer algorithms to ascertain percent inhibition values.
The Activity Table showing the results of the HIV Protease Inhibitory Assay appears below in TABLE 1. The table has three columns, the left column provides the code number of the compound for easy cross reference to structure tables and detailed procedures, the middle column provides the concentration of test compound and the column on the right provides the percent inhibition.

## CCCCC1(CCCC)OC(=O)C(C(c2ccccc2)C2CC2)=C1O (centres unmarked) [BX-15, 2(5H)-Furanone, 5,5-dibutyl-3-(cyclopropylphenylmethyl)-4-hydroxy-]
  inhibition at 3.3 µM: 115%
  inhibition at 10 µM: 118%
  inhibition at 30 µM: 122%

## O=C1OC(C(CCc2ccccc2)c2ccccc2)C(O)=C1C(c1ccccc1)C1CC1 (centres unmarked) [GX-4, 2(5H)-Furanone,3-(cyclopropylphenylmethyl)-5-(1,3-diphenylpropyl)-4-hydroxy-]
  inhibition at 3.3 µM: 93.6%
  inhibition at 10 µM: 108%
  inhibition at 30 µM: 103%

## CCCC1(Cc2ccccc2)OC(=O)C(C(c2cccc(NS(=O)(=O)c3ccc(F)cc3)c2)C(C)C)=C1O (centres unmarked) [IX-29, Benzenesulfonamide, N-(3-(1-(2,5-dihydro-4-hydroxy-2-oxo-5-(phenylmethyl)-5-propyl-3-furanyl)-2-methylpropyl)phenyl)-4-fluoro-]
  inhibition at 3.3 µM: 94.9%
  inhibition at 10 µM: 102%
  inhibition at 30 µM: 93.3%

## CCC/C=C1\OC(=O)C(C(c2ccccc2)C2CC2)=C1O (centres unmarked) [JX-4, 5-Butylidene-3-(cyclopropyl-phenyl-methyl)-4-hydroxy-5H-furan-2-one]
  inhibition at 3.3 µM: 85.9%
  inhibition at 10 µM: 99.2%
  inhibition at 30 µM: 113%

## CCC(C1=C(O)C(CCc2ccccc2)OC1=O)c1ccccc1 (centres unmarked) [BX-16, 2(5H)-Furanone, 4-hydroxy-5-(2-phenylethyl)-3-(1-phenylpropyl)-]
  inhibition at 3.3 µM: 41.4%
  inhibition at 10 µM: 71.4%
  inhibition at 30 µM: 80.3%

## CCC1CCCCC12OC(=O)C(C(c1ccccc1)C1CC1)=C2O (centres unmarked) [IX-34, 1-Oxaspiro[4.5]dec-3-en-2-one, 3-(cyclopropylphenylmethyl)-4-hydroxy-6-ethyl-]
  inhibition at 3.3 µM: 97%
  inhibition at 10 µM: 98.1%
  inhibition at 30 µM: 93.3%

## CCCC1(CCC)OC(=O)C(C(CC)c2cccc(NS(=O)(=O)c3ccccc3)c2)=C1O (centres unmarked) [IX-20, Benzenesulfonamide, N-(3-(1-(2,5-dihydro-4-hydroxy-2-oxo--5,5-dipropyl-3-furanyl)propyl)phenyl)-]
  inhibition at 3.3 µM: 104%
  inhibition at 10 µM: 101%
  inhibition at 30 µM: 91.8%

## CC(C)C(C1=C(O)C(CCCc2ccccc2)OC1=O)c1ccccc1 (centres unmarked) [FX-4, 2(5H)-Furanone, 4-hydroxy-3-(2-methyl-1-phenylpropyl)-5-(3-phenylpropyl)-]
  inhibition at 3.3 µM: 56.6%
  inhibition at 10 µM: 84.4%
  inhibition at 30 µM: 96.5%

## O=C1OC2(CCCCC2CCc2ccccc2)C(O)=C1C(c1ccccc1)C1CC1 (centres unmarked) [IX-4, 1 -Oxaspiro[4.5]dec-3-en-2-one, 3-(cyclo-propylphenylmethyl)-5-hydroxy--6-(2-phenylethyl)-]
  inhibition at 10 µM: 78.1%
  inhibition at 30 µM: 86%
Test compound concentration 3.3 μM
  HIV-1 Protease % Inhibition: 56.89%

## CCCC1(CCC)OC(=O)C(C(CC(C)C)c2cccc(NS(=O)(=O)c3cn(C)cn3)c2)=C1O (centres unmarked) [IX-22]
  inhibition at 3.3 µM: 94.3%
  inhibition at 10 µM: 96.3%
  inhibition at 30 µM: 94.5%

## O=C1OC(CCCc2ccccc2)(Cc2ccccc2)C(O)=C1C(c1ccccc1)C1CC1 (centres unmarked) [DX-15, 2(5H)-Furanone, 3-(cyclopropylphenylmethyl)-4-hydroxy-5-(phenylmethyl)-5-(3--phenylpropyl)-]
  inhibition at 3.3 µM: 108%
  inhibition at 10 µM: 116%
  inhibition at 30 µM: 114%

## CCCC1(CCC)OC(=O)C(C(c2ccccc2)C2CC2)=C1O (centres unmarked) [BX-12, 2(5H)-Furanone, 3-(cyclopropylphenylmethyl)-4-hydroxy-5,5-dipropyl-]
  inhibition at 3.3 µM: 110%
  inhibition at 10 µM: 112%
  inhibition at 30 µM: 95.3%

## CCCC1(Cc2ccccc2)OC(=O)C(C(c2cccc(NS(=O)(=O)c3cccc4cccnc34)c2)C(C)C)=C1O (centres unmarked) [IX-31]
  inhibition at 3.3 µM: 107%
  inhibition at 10 µM: 114%
  inhibition at 30 µM: 109%

## O=C1OC(CCc2ccccc2)C(O)=C1C(c1ccccc1)C1CC1 (centres unmarked) [BX-2, 2(5H)-Furanone, 3(cyclopropylphenylmethyl)-4-hydroxy-5-(2-phenylethyl)-]
HIV-1 dose 1.0 μM
  inhibition at 1 µM: 47.2%
  inhibition at 10 µM: 81%
HIV-1 dose 100.0 μM
  inhibition at 100 µM: 81.4%

## CC1(CCCc2ccccc2)OC(=O)C(C(c2ccccc2)C2CC2)=C1O (centres unmarked) [DX-10, 2(5H)-Furanone, 3-(cyclopropylphenylmethyl)-4-hydroxy-5-methyl-5-(3-phenyl-propyl)-]
  inhibition at 3.3 µM: 112%
  inhibition at 10 µM: 104%
  inhibition at 30 µM: 91.5%

## CC(C)C1(C(C)C)OC(=O)C(C(c2ccccc2)C2CC2)=C1O (centres unmarked) [BX-13, 2(5H)-Furanone, 3-(cyclopropylphenylmethyl)-4-hydroxy-5,5-bis(1-methylethyl)-]
HIV-1 dose 1.1 μM
  inhibition at 1.1 µM: 94.1%
  inhibition at 3.3 µM: 104%
  inhibition at 10 µM: 108%

## CCC1(Cc2ccccc2)OC(=O)C(C(c2ccccc2)C(C)C)=C1O (centres unmarked) [IX-9, 2(5H)-Furanone, 5-ethyl-4-hydroxy-3-(2-methy1-1-phenylpropyl)-5-(phenyl-methyl)-]
  inhibition at 3.3 µM: 103%
  inhibition at 10 µM: 109%
  inhibition at 30 µM: 108%

## CCCC1(CCC)OC(=O)C(C(c2cccc(NS(=O)(=O)c3ccc(C#N)cn3)c2)C2CC2)=C1O (centres unmarked) [IX-35, 5-cyano-2-pyridinesulfonamide, N-(3-(cyclopropyl(2,5-dihydro-4-hydroxy-2-oxo-5,5-dipropyl-3-furanyl)methyl)phenyl)-]
  inhibition at 3.3 µM: 82.2%
  inhibition at 10 µM: 98.8%
  inhibition at 30 µM: 91.9%

## CCCC1(CCC)OC(=O)C(C(c2cccc(NS(=O)(=O)c3ccc4ccccc4n3)c2)C2CC2)=C1O (centres unmarked) [IX-38]
  inhibition at 3.3 µM: 83%
  inhibition at 10 µM: 85%
  inhibition at 30 µM: 84.8%

## CCC(C1=C(O)C(CC)(Cc2ccccc2)OC1=O)c1ccccc1 (centres unmarked) [IX-10, 2(5H)-Furanone, 5-ethyl-4-hydroxy-5-(phenyl-methyl)-3-(1-phenylpropyl)-]
  inhibition at 3.3 µM: 97.3%
  inhibition at 10 µM: 105%
  inhibition at 30 µM: 101%

## CCCCC(CCc1ccccc1)C1OC(=O)C(C(c2ccccc2)C2CC2)=C1O (single isomer, unassigned) [GX-1, 2(5H)-Furanone, 3-(cyclopropylphenylmethyl)-4-hydroxy-5-(1-(2-phenyl-ethyl)pentyl)-]
  inhibition at 3.3 µM: 74.6%
  inhibition at 10 µM: 89.2%
  inhibition at 30 µM: 74%

## C=CCC1(CCCc2ccccc2)OC(=O)C(C(c2ccccc2)C2CC2)=C1O (centres unmarked) [DX-16, 2(5H)-Furanone, 3-(cyclopropylphenylmethyl)-4-hydroxy-5-(3-phenyl-propyl)-5-(2-propenyl)-]
  inhibition at 3.3 µM: 114%
  inhibition at 10 µM: 115%
  inhibition at 30 µM: 118%

## CCCC1(CCC)OC(=O)C(C(c2cccc(NS(=O)(=O)c3cn(C)cn3)c2)C(C)(C)C)=C1O (centres unmarked) [IX-26, 1H-Imidazole-4-sulfonamide, N-(3-(1-(4-hydroxy-2-oxo-5,5-dipropyl-2,5-dihydro-furan-3-yl)-2,2-dimethyl-propyl)-phenyl)-1-methyl-]
  inhibition at 3.3 µM: 110%
  inhibition at 10 µM: 116%
  inhibition at 30 µM: 105%

## O=C1OC(C(CCO)CCc2ccccc2)C(O)=C1C(c1ccccc1)C1CC1 (centres unmarked) [HX-2, 2(5H)-Furanone, 3-(cyclopropylphenylmethyl)-4-hydroxy-5-(1-(2-hydroxyethyl)--3-phenylpropyl)-]
HIV-1 dose 0.1 μM
  inhibition at 0.1 µM: < 10%
HIV-1 dose 0.3 μM
  inhibition at 0.3 µM: 13.5%

## N#Cc1ccc(S(=O)(=O)Nc2cccc(C(C3=C(O)C(Cc4ccccc4)(Cc4ccccc4)OC3=O)C3CC3)c2)cc1 (centres unmarked) [IX-43]
  inhibition at 3.3 µM: 98.6%
  inhibition at 10 µM: 96.8%
  inhibition at 30 µM: 99.8%

## CCCC1(CCC)OC(=O)C(C(c2cccc(NS(=O)(=O)c3cn(C)cn3)c2)C2CCCC2)=C1O (centres unmarked) [IX-42, 1H-Imidazole-4-sulfonamide, N-(3-(cyclopentyl(2,5-dihydro-4-hydroxy-2-oxo-5,5-dipropyl-3-furanyl)methyl)phenyl)-1-methyl-]
  inhibition at 3.3 µM: 94.5%
  inhibition at 10 µM: 96%
  inhibition at 30 µM: 96.8%

## CCCCC(CC)C1OC(=O)C(C(c2ccccc2)C2CC2)=C1O (centres unmarked) [GX-5, 2(5H)-Furanone, 3-(cyclopropylphenylmethyl)-5-(1-ethylpentyl)-4-hydroxy-]
  inhibition at 3.3 µM: 94%
  inhibition at 10 µM: 94.1%
  inhibition at 30 µM: 99.2%

## CCCC1(CCC)OC(=O)C(C(c2cccc(NS(=O)(=O)c3ccccn3)c2)C2CC2)=C1O (centres unmarked) [IX-52, 2-Pyridinesulfonamide, N-(3-(cyclopropyl-(4-hydroxy-2-oxo-5,5-dipropyl-2,5-dihydro-furan-3-yl)-methyl)-phenyl)-]
  inhibition at 3.3 µM: 110%
  inhibition at 10 µM: 104%
  inhibition at 30 µM: 99.9%

## CCCC1(CCC)OC(=O)C(C(CC)c2cccc([N+](=O)[O-])c2)=C1O (centres unmarked) [IX-2, 2(5H)-Furanone, 4-hydroxy-3-(1-(3-nitrophenyl)propyl)-5,5-dipropyl-]
  inhibition at 3.3 µM: 102%
  inhibition at 10 µM: 113%
  inhibition at 30 µM: 102%

## CC(C)C1OC(=O)C(C(c2ccccc2)C2CC2)=C1O (centres unmarked) [BX-10, 2(5H)-Furanone, 3-(cyclopropylphenylmethyl)-4-hydroxy-5-(1-methylethyl)-]
  inhibition at 3.3 µM: 40.5%
  inhibition at 10 µM: 74.6%
  inhibition at 30 µM: 98.6%
